Reference: patent US20130096119A1, “Isoquinolin-3-Ylurea Derivatives” (priority 2010, published 2013)
Values after ≈ are worked out from the molar mass of the structure shown.

Each molecule was assayed on S. pneumoniae ATCC 49619 (assay: Minimal inhibitory concentration (MIC) by microdilution method (CLSI M7-A7)). Conditions: Streptococcus pneumoniae, ATCC49619, cation-adjusted Mueller-Hinton Broth supplemented with 3% (v/v) lysed horse blood.
Assay type: cell-based, Streptococcus pneumoniae
Summary of the method: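 For S. pneumoniae, cation-adjusted Mueller-Hinton broth carried 3% (v/v) lysed horse blood; MICs (mg/l) were read by CLSI M7-A7 microdilution.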

| MIC [µg/mL] | SMILES |
| --- | --- |
| 2 | CCNC(=O)Nc1cc2cccc(Nc3ccc(C(N)=O)cc3)c2cn1.Cl [Example 252, 4-[3-(3-ethyl-ureido)-isoquinolin-8-ylamino]-benzamide hydrochloride] |
| 2 (≈ 6.22 µM) | CCNC(=O)Nc1cc2c(-c3ccc(O)cc3)ccc(C)c2cn1 [Example 2, 1-ethyl-3-[5-(4-hydroxy-phenyl)-8-methyl-isoquinolin-3-yl]-urea] |
| 2 (≈ 5.5 µM) | CCNC(=O)Nc1cc2cccc(Nc3cccc(NC(C)=O)c3)c2cn1 [Example 172, N-{3-[3-(3-ethyl-ureido)-isoquinolin-8-ylamino]-phenyl}-acetamide] |
| 4 (≈ 10 µM) | CCNC(=O)Nc1cc2c(Nc3cccnc3)ccc(Nc3cccnc3)c2cn1 [Example 268, 1-[5,8-bis-(pyridin-3-ylamino)-isoquinolin-3-yl]-3-ethyl-urea] |
| 2 | CCNC(=O)Nc1cc2cccc(Nc3ccc(C)cn3)c2cn1.Cl [Example 163, 1-ethyl-3-[8-(5-methyl-pyridin-2-ylamino)-isoquinolin-3-yl]-urea hydrochloride] |
| 2 (≈ 7.34 µM) | CCNC(=O)Nc1cc2c(NCC)ccc(C)c2cn1 [Example 63, 1-ethyl-3-(5-ethylamino-8-methyl-isoquinolin-3-yl)-urea] |
| 1 (≈ 2.32 µM) | CCNC(=O)Nc1cc2c(F)c(-c3cccnc3)cc(-c3ccc(C(=O)O)cc3)c2cn1 [Example 33, 4-[3-(3-ethyl-ureido)-5-fluoro-6-pyridin-3-yl-isoquinolin-8-yl]-benzoic acid] |
| 2 (≈ 5.61 µM) | CCNC(=O)Nc1cc2cc(-c3cncc4ccccc34)cc(C)c2cn1 [Example 91, 1-ethyl-3-(8′-methyl-[4,6′]biisoquinolinyl-3′-yl)-urea] |
| 0.25 (≈ 0.626 µM) | CCNC(=O)Nc1cc2c(-c3ccncn3)ccc(Nc3ccc(C)nc3)c2cn1 [Example 287, 1-ethyl-3-[8-(6-methyl-pyridin-3-ylamino)-5-pyrimidin-4-yl-isoquinolin-3-yl]-urea] |
| 1 (≈ 2.07 µM) | CCNC(=O)Nc1cc2c(-c3ccc(CO)cc3)ccc(Nc3cccc(C(=O)N(C)C)c3)c2cn1 [Example 251, 3-[3-(3-ethyl-ureido)-5-(4-hydroxymethyl-phenyl)-isoquinolin-8-ylamino]-N,N-dimethyl-benzamide] |
| 0.125 (≈ 0.351 µM) | CCNC(=O)Nc1cc2cc(-c3cnc4ccccc4c3)cc(C)c2cn1 [Example 36, 1-ethyl-3-(8-methyl-6-quinolin-3-yl-isoquinolin-3-yl)-urea] |
| 8 (≈ 23.9 µM) | CCNC(=O)Nc1cc2c(-c3cccc(CO)c3)ccc(C)c2cn1 [Example 12, 1-ethyl-3-[5-(3-hydroxymethyl-phenyl)-8-methyl-isoquinolin-3-yl]-urea] |
| 2 | CCNC(=O)Nc1cc2cccc(Nc3cc(F)ccn3)c2cn1.Cl [Example 158, 1-ethyl-3-[8-(4-fluoro-pyridin-2-ylamino)-isoquinolin-3-yl]-urea hydrochloride] |
| 8 | CCNC(=O)Nc1cc2cccc(COc3ccncc3C(=O)OC)c2cn1.Cl [Example 212, 4-[3-(3-ethyl-ureido)-isoquinolin-8-ylmethoxy]-nicotinic acid methyl ester hydrochloride] |
| 8 (≈ 29.4 µM) | CCNC(=O)Nc1cc2c(CNC)ccc(C)c2cn1 [Example 269, 1-ethyl-3-(8-methyl-5-methylaminomethyl-isoquinolin-3-yl)-urea] |
| 0.25 (≈ 0.657 µM) | CCNC(=O)Nc1cc2c(F)c(-c3cccc(NC(C)=O)c3)cc(C)c2cn1 [Example 142, N-{3-[3-(3-ethyl-ureido)-5-fluoro-8-methyl-isoquinolin-6-yl]-phenyl}-acetamide] |
| 8 | CCNC(=O)Nc1cc2cccc(COc3ccncc3)c2cn1.Cl [Example 262, 1-ethyl-3-[8-(pyridin-4-yloxymethyl)-isoquinolin-3-yl]-urea hydrochloride] |

| MIC [µg/mL] | SMILES |
| --- | --- |
| 0.5 (≈ 1.03 µM) | CCNC(=O)Nc1cc2c(F)c(-c3cnc4ccccc4c3)cc(-c3cnc4ccccc4c3)c2cn1 [Example 112, 1-ethyl-3-(5-fluoro-6,8-di-quinolin-3-yl-isoquinolin-3-yl)-urea] |
| 16 | CCNC(=O)Nc1cc2cc(NCc3cccc(OCCO)c3)cc(C)c2cn1.Cl [Example 129, 1-ethyl-3-{6-[3-(2-hydroxy-ethoxy)-benzylamino]-8-methyl-isoquinolin-3-yl}-urea hydrochloride] |
| 0.5 (≈ 1.24 µM) | CCNC(=O)Nc1cc2c(F)c(-c3ccc(S(N)(=O)=O)cc3)cc(C)c2cn1 [Example 144, 4-[3-(3-ethyl-ureido)-5-fluoro-8-methyl-isoquinolin-6-yl]-benzenesulfonamide] |
| 16 (≈ 42.3 µM) | CCNC(=O)Nc1cc2cc(NCc3ccc(C(=O)O)cc3)cc(C)c2cn1 [Example 127, 4-{[3-(3-ethyl-ureido)-8-methyl-isoquinolin-6-ylamino]-methyl}-benzoic acid] |
| 0.25 (≈ 0.703 µM) | CCNC(=O)Nc1cc2cc(NC(=O)c3cncs3)cc(C)c2cn1 [Example 62, thiazole-5-carboxylic acid [3-(3-ethyl-ureido)-8-methyl-isoquinolin-6-yl]-amide] |
| 1 (≈ 2.87 µM) | CCNC(=O)Nc1cc2cc(-c3cccc(C(N)=O)c3)cc(C)c2cn1 [Example 31, 3-[3-(3-ethyl-ureido)-8-methyl-isoquinolin-6-yl]-benzamide] |
| 0.5 (≈ 1.48 µM) | CCNC(=O)Nc1cc2c(F)c(-c3cncc(C)c3)cc(C)c2cn1 [Example 141, 1-ethyl-3-[5-fluoro-8-methyl-6-(5-methylpyridin-3-yl)isoquinolin-3-yl]-urea] |
| 2 (≈ 4.93 µM) | CCNC(=O)Nc1cc2c(N3CCN(C)CC3)ccc(Nc3cccnc3)c2cn1 [Example 277, 1-ethyl-3-[5-(4-methyl-piperazin-1-yl)-8-(pyridin-3-ylamino)-isoquinolin-3-yl]-urea] |
| 8 (≈ 31.3 µM) | C=Cc1cc(C)c2cnc(NC(=O)NCC)cc2c1 [Example 216, 1-ethyl-3-(8-methyl-6-vinyl-isoquinolin-3-yl)-urea] |
| 1 (≈ 3.08 µM) | Cc1ccc(-c2ccncc2)c2cc(NC(=O)NCCF)ncc12 [Example 138, 1-(2-fluoro-ethyl)-3-(8-methyl-5-pyridin-4-yl-isoquinolin-3-yl)-urea] |
| 8 | CCNC(=O)Nc1cc2cc(NCc3ccc(OC)nc3)cc(C)c2cn1.Cl [Example 196, 1-ethyl-3-{6-[(6-methoxy-pyridin-3-ylmethyl)-amino]-8-methyl-isoquinolin-3-yl}-urea hydrochloride] |
| 8 (≈ 23.6 µM) | CCNC(=O)Nc1cc2c(F)ccc(NCc3cccnc3)c2cn1 [Example 55, 1-ethyl-3-{5-fluoro-8-[(pyridin-3-ylmethyl)-amino]-isoquinolin-3-yl}-urea] |
| 4 (≈ 10.6 µM) | CCNC(=O)Nc1cc2cccc(Nc3ccc(C(=O)OC)c(C)c3)c2cn1 [Example 266, 4-[3-(3-ethyl-ureido)-isoquinolin-8-ylamino]-2-methyl-benzoic acid methyl ester] |
| 2 | CCNC(=O)Nc1cc2c(-c3cscn3)ccc(C)c2cn1.Cl [Example 285, 1-ethyl-3-(8-methyl-5-thiazol-4-yl-isoquinolin-3-yl)-urea hydrochloride] |
| 2 (≈ 5.49 µM) | CCNC(=O)Nc1cc2cccc(Nc3cccc(C(=O)OC)c3)c2cn1 [Example 176, 3-[3-(3-ethyl-ureido)-isoquinolin-8-ylamino]-benzoic acid methyl ester] |
| 1 (≈ 2.46 µM) | CCNC(=O)Nc1cc2cc(NC(=O)c3ccc(C(=O)OC)cc3)cc(C)c2cn1 [Example 193, N-[3-(3-ethyl-ureido)-8-methyl-isoquinolin-6-yl]terephthalamic acid methyl ester] |
